Source: patent US11377425B1, “Small molecule modulators of IL-17” (LEO Pharma A/S, priority 2018, dated 2022)

Molecular target: T1, human IL-17AA (Homo sapiens, UniProt Q16552)
T1 construct: host or cells: HEK (human embryonic kidney) cells
T1 sequence (Q16552 24-155): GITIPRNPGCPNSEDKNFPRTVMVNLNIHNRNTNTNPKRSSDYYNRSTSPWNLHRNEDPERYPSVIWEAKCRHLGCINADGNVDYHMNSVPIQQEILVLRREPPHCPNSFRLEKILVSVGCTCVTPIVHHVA
Test: IL-8 release assay in human epithelial keratinocytes adult (HEKa)
Format: cell-based
Settings: HEKa cells, 3 ng/mL HEK-human IL-17AA + 10 ng/mL human TNFalpha; read-out: Rel EC50 IL-8 release assay
Protocol: Example 138: IL-8 Release Assay in Human Epithelial Keratinocytes Adult (HEKa)
Keratinocytes were seeded at 3500 cells/well in 384-well ViewPlates (Perkin Elmer) in Epilife medium (Thermo Fisher) containing human keratinocyte growth supplement (HKGS) without hydrocortisone and incubated in a humid incubator at 37° C. 5% CO2, overnight. The following day growth medium was removed and 25 μl fresh Epilife medium added. 75 nL test compound in 100% DMSO was added into each well reserved for test compounds, by the use of acoustic pipetting. The remaining wells received an equal volume of DMSO only, as vehicle control, or terfenadine in DMSO, as a positive control for any cytotoxic compounds. Subsequently, another 25 μL Epilife medium was added to each well. Finally, wells containing test compounds and wells prepared to yield maximum stimulation received […] of 9 ng/mL recombinant, human embryonic kidney cell (HEK)-derived human IL-17AA+30 ng/mL human TNF-alpha, in Epilife medium. Wells prepared to define 100% inhibition of IL-17 effects received 25 μL of 30 ng/mL human TNF-alpha alone, in Epilife medium. Final concentrations were 3 ng/mL HEK-human IL-17AA+10 ng/mL human TNFalpha (maximum stimulation) and 10 ng/mL human TNFalpha alone (100% inhibition, Emax), respectively. Cells were incubated for 68-72 hours in the incubator. IL-8 released from the cells was measured by the use of a commercial homogenous time-resolved fluorescence (HTRF) assay (CisBio). 2 μL cell culture supernatant was transferred to a 384-well Proxiplate. 5 μL HTRF reagent was added and the plates incubated sealed in the dark for 3-22 hours at room temperature. Time-resolved fluorescence was read at 665 vs 620 nm, with excitation at 320 nm, and IL-8 levels calculated as percent of controls. Reduction of the amount of secreted IL-8 indicates decreased IL-17 signaling. Concentration response curves were fitted by the use of a four-parameter logistic equation. Relative IC50 and Emax were reported from curves showing acceptable fit (r^2>0.9). Cytotoxicity was measured in the cell-containing Viewplates following addition of 7 μL PrestoBlue (Thermo Fisher) and incubation for 2.5-3 hours at room temperature, by measuring fluorescence at 615 nm (excitation at 535 nm). Fluorescence was directly proportional to the amount of metabolic activity. Reduction of fluorescence signal indicated cytotoxicity.
Compounds of the present invention were tested in the IL-8 release assay in human epithelial keratinocytes.
Compounds having a Relative EC50 of X; wherein X<100 nM; are indicated with *
Compounds having a Relative EC50 of X; wherein 100 nM<X<1000 nM; are indicated with **
Compounds having a Relative EC50 of X; wherein 1000 nM<X; are indicated with ***

SMILES | EC50 [nM]
Cc1n[nH]c(C)c1-c1ccc(NC(=O)C(NC(=O)c2ccnn2[C@@H](C)CO)C2CCCCCCC2)cc1 (single isomer, unassigned) [Example 150] | > 1000
Cc1n[nH]c(C)c1-c1ccc(NC(=O)C(NC(=O)c2ccnn2C(C)C)C2CCCCCCC2)cc1 (single isomer, unassigned) [Example 153, N-[1-cyclooctyl-2-[4-(3,5-dimethyl-1H-pyrazol-4-yl)anilino]-2-oxo-ethyl]-2-(1-methylethyl)pyrazole-3-carboxamide] | 100 to 1000
CCn1nccc1C(=O)NC(C(=O)Nc1ccc(-c2c(C)n[nH]c2C)cc1)C1CCCCCCC1 (single isomer, unassigned) [Example 154, N-[1-cyclooctyl-2-[4-(3,5-dimethyl-1H-pyrazol-4-yl)anilino]-2-oxo-ethyl]-2-ethyl-pyrazole-3-carboxamide] | 100 to 1000
Cc1n[nH]c(C)c1-c1ccc(NC(=O)C(NC(=O)c2ccnn2C)C2CCCCCCC2)cc1 (single isomer, unassigned) [Example 157, N-[1-cyclooctyl-2-[4-(3,5-dimethyl-1H-pyrazol-4-yl)anilino]-2-oxo-ethyl]-2-methyl-pyrazole-3-carboxamide] | > 1000
Cc1n[nH]c(C)c1-c1ccc(NC(=O)[C@@H](NC(=O)c2ccnn2C)C(C)CC2CC2)cc1 (single isomer, unassigned) [Example 159] | 100 to 1000
Cc1n[nH]c(C)c1-c1ccc(NC(=O)[C@@H](NC(=O)c2ccnn2C)C(C)CC2CC2)cc1 (single isomer, unassigned) [Example 160] | 100 to 1000
Cc1n[nH]c(C)c1-c1ccc(NC(=O)[C@@H](NC(=O)c2ccnn2[C@H](C)CO)C(C)C2CCC2)cc1 (single isomer, unassigned) [Example 164] | 100 to 1000
Cc1n[nH]c(C)c1-c1ccc(NC(=O)[C@@H](NC(=O)c2ccnn2[C@H](C)CO)C(C)C2CCC2)cc1 (single isomer, unassigned) [Example 165] | 100 to 1000
Cc1n[nH]c(C)c1-c1ccc(NC(=O)[C@@H](NC(=O)c2ccnn2[C@@H](C)CO)C(C)C2CCC2)cc1 (single isomer, unassigned) [Example 174] | 100 to 1000
Cc1n[nH]c(C)c1-c1ccc(NC(=O)[C@@H](NC(=O)c2ccnn2C(C)CO)C(C)C(C)(C)C)cc1 (single isomer, unassigned) [Example 175] | 100 to 1000
Cc1n[nH]c(C)c1-c1ccc(NC(=O)[C@@H](NC(=O)c2ccnn2C(C)CO)C(C)C(C)(C)C)cc1 (single isomer, unassigned) [Example 176] | 100 to 1000
Cc1n[nH]c(C)c1-c1ccc(NC(=O)[C@@H](NC(=O)c2ccnn2C(C)CO)C(C)C(C)(C)C)cc1 (single isomer, unassigned) [Example 177] | 100 to 1000
Cc1n[nH]c(C)c1-c1ccc(NC(=O)[C@@H](NC(=O)c2ccnn2C(C)C)C(C)C2CCC2)cc1 (single isomer, unassigned) [Example 191] | 100 to 1000
CCn1nccc1C(=O)N[C@H](C(=O)Nc1ccc(-c2c(C)n[nH]c2C)cc1)C(C)C1CCC1 (single isomer, unassigned) [Example 193] | 100 to 1000
Cc1n[nH]c(C)c1-c1ccc(NC(=O)[C@@H](NC(=O)c2ccnn2C)C(C)C2CCC2)cc1 (single isomer, unassigned) [Example 195] | 100 to 1000
Cc1n[nH]c(C)c1-c1ccc(NC(=O)[C@@H](NC(=O)c2ccnn2C)C2CC23CCC3)cc1 (single isomer, unassigned) [Example 223] | > 1000
Cc1n[nH]c(C)c1-c1ccc(NC(=O)[C@@H](NC(=O)c2ccnn2C)C2CC2(C)C)cc1 (single isomer, unassigned) [Example 224] | > 1000
CCC(c1ccccc1)C(NC(=O)c1ccnn1C)C(=O)Nc1ccc(-c2c(C)n[nH]c2C)cc1 (single isomer, unassigned) [Example 227] | > 1000
CCC(c1ccccc1)C(NC(=O)c1ccnn1C)C(=O)Nc1ccc(-c2c(C)n[nH]c2C)cc1 (single isomer, unassigned) [Example 228] | 100 to 1000
Cc1n[nH]c(C)c1-c1ccc(NC(=O)[C@@H](NC(=O)c2ccnn2C)C2CCC2(C)C)cc1 (single isomer, unassigned) [Example 232] | 100 to 1000
Cc1n[nH]c(C)c1-c1ccc(NC(=O)C(NC(=O)c2ccnn2C)[C@@H](C)c2ccccc2)cc1 (single isomer, unassigned) [Example 234] | 100 to 1000

More lines, now with the values ahead:

EC50 [nM] | SMILES
< 100 | Cc1n[nH]c(C)c1-c1ccc(NC(=O)C(NC(=O)c2ccnn2[C@@H](C)CO)C2CCCCCCC2)cc1 (single isomer, unassigned) [Example 151]
< 100 | Cc1n[nH]c(C)c1-c1ccc(NC(=O)C(NC(=O)c2ccnn2C(C)C)C2CCCCCCC2)cc1 (single isomer, unassigned) [Example 152, N-[1-cyclooctyl-2-[4-(3,5-dimethyl-1H-pyrazol-4-yl)anilino]-2-oxo-ethyl]-2-(1-methylethyl)pyrazole-3-carboxamide]
< 100 | CCn1nccc1C(=O)NC(C(=O)Nc1ccc(-c2c(C)n[nH]c2C)cc1)C1CCCCCCC1 (single isomer, unassigned) [Example 155, N-[1-cyclooctyl-2-[4-(3,5-dimethyl-1H-pyrazol-4-yl)anilino]-2-oxo-ethyl]-2-ethyl-pyrazole-3-carboxamide]
< 100 | Cc1n[nH]c(C)c1-c1ccc(NC(=O)C(NC(=O)c2ccnn2C)C2CCCCCCC2)cc1 (single isomer, unassigned) [Example 156, N-[1-cyclooctyl-2-[4-(3,5-dimethyl-1H-pyrazol-4-yl)anilino]-2-oxo-ethyl]-2-methyl-pyrazole-3-carboxamide]
< 100 | Cc1n[nH]c(C)c1-c1ccc(NC(=O)[C@@H](NC(=O)c2ccnn2[C@@H](C)CO)C(C)C2CCC2)cc1 (single isomer, unassigned) [Example 173]
< 100 | Cc1n[nH]c(C)c1-c1ccc(NC(=O)[C@@H](NC(=O)c2ccnn2C(C)CO)C(C)C(C)(C)C)cc1 (single isomer, unassigned) [Example 178]
< 100 | Cc1n[nH]c(C)c1-c1ccc(NC(=O)[C@@H](NC(=O)c2ccnn2C(C)CO)C2C3CC4CC(C3)CC2C4)cc1 (single isomer, unassigned) [Example 187]
< 100 | Cc1n[nH]c(C)c1-c1ccc(NC(=O)[C@@H](NC(=O)c2ccnn2C(C)CO)C2C3CC4CC(C3)CC2C4)cc1 (single isomer, unassigned) [Example 188]
< 100 | Cc1n[nH]c(C)c1-c1ccc(NC(=O)[C@@H](NC(=O)c2ccnn2C(C)C)C(C)C2CCC2)cc1 (single isomer, unassigned) [Example 190]
< 100 | CCn1nccc1C(=O)N[C@H](C(=O)Nc1ccc(-c2c(C)n[nH]c2C)cc1)C(C)C1CCC1 (single isomer, unassigned) [Example 192]
< 100 | Cc1n[nH]c(C)c1-c1ccc(NC(=O)[C@@H](NC(=O)c2ccnn2C)C(C)C2CCC2)cc1 (single isomer, unassigned) [Example 194]
< 100 | Cc1n[nH]c(C)c1-c1ccc(NC(=O)[C@@H](NC(=O)c2ccnn2C(C)CO)[C@H]2CC[C@H](C)CC2)cc1 (single isomer, unassigned) [Example 204]
< 100 | Cc1n[nH]c(C)c1-c1ccc(NC(=O)[C@@H](NC(=O)c2ccnn2C(C)CO)[C@H]2CC[C@H](C)CC2)cc1 (single isomer, unassigned) [Example 205]
< 100 | Cc1n[nH]c(C)c1-c1ccc(NC(=O)[C@@H](NC(=O)c2ccnn2C(C)CO)[C@@H]2CC(C)(C)CCC2(F)F)cc1 (single isomer, unassigned) [Example 210]
< 100 | Cc1n[nH]c(C)c1-c1ccc(NC(=O)[C@@H](NC(=O)c2ccnn2C(C)CO)[C@@H]2CC(C)(C)CCC2(F)F)cc1 (single isomer, unassigned) [Example 211]
< 100 | Cc1n[nH]c(C)c1-c1ccc(NC(=O)[C@@H](NC(=O)c2ccnn2C(C)CCO)C(C2CC2)C2CC2)cc1 (single isomer, unassigned) [Example 225]
< 100 | Cc1n[nH]c(C)c1-c1ccc(NC(=O)[C@@H](NC(=O)c2ccnn2C(C)CCO)C(C2CC2)C2CC2)cc1 (single isomer, unassigned) [Example 226]
